For one data set, the system named is HIV derived RRE RNA. Nature of the data set: heterologous hybridization inhibition assay with RRE RNA. Particulars: radiolabeled RRE RNA, rRNA competitor; call rule not given here. In kind it is binding.
In the next data set the test system is 2.2.15 cells. Nature of the data set: neutral red dye uptake cytotoxicity. Particulars: 9 days treatment, read-out: 50% Cell Death CC50. Type of data set: cell-based. The essentials:
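Confluent 2.2.15 cultures, same conditions as antiviral assay, treated daily for 9 days with 4 concentrations (3.3-fold dilutions), triplicate wells. 24 hours after the final dose, cells stained 30 minutes with 0.01% neutral red, dye extracted and A510 read; values as % of untreated cultures, CC50 as 50% cell death.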

For orientation: CC50 means the concentration giving 50% cytotoxicity. In general, IC50 refers to the point on the concentration scale where inhibition reaches its midpoint.

Take `CC(C)(C)Nc1nc(NCc2ccccc2)nc(NN=Cc2ccc3c(c2)OCO3)n1` [Compound 67]: in the data set on HIV derived RRE RNA, the “RRE + rRNA IC50 (μM)” value was “inactive”. For the same compound, in the data set on 2.2.15 cells, the CC50 is greater than 100 µM.

For the compound `Cc1[nH]c2ccccc2c1C=NNc1nc(Nc2ccccc2)nc(N2CCOCC2)n1` [Compound 4], the “RRE + rRNA IC50 (μM)” value in the data set on HIV derived RRE RNA was “inactive”. Moreover, the CC50 in the data set with 2.2.15 cells was found to be 3.7 µM.

Turning to `CCN(CC)c1nc(N/N=C/c2ccc([N+](=O)[O-])cc2)nc(Nc2cc(C)ccc2C)n1` [Compound 63], in the data set with HIV derived RRE RNA, the “RRE + rRNA IC50 (μM)” value was “inactive”. Further, the CC50 in the data set on 2.2.15 cells was greater than 100 µM.

In the case of `CC(C)c1ccc(C=NNc2nc(Nc3ccc([N+](=O)[O-])cc3)nc(N3CCCCC3)n2)cc1` [Compound 62], the “RRE + rRNA IC50 (μM)” value with HIV derived RRE RNA was “inactive”. In addition, the CC50 in the data set with 2.2.15 cells is greater than 100 µM.

Take `CCCCN(CCCC)c1nc(NN=C(C)c2ccccc2)nc(Nc2ccc([N+](=O)[O-])cc2)n1` [Compound 74]: the “RRE + rRNA IC50 (μM)” value in the data set on HIV derived RRE RNA is “inactive”. For the same compound, the CC50 with 2.2.15 cells is greater than 100 µM.

Take `CCN(CC)c1nc(NN=Cc2cc([N+](=O)[O-])ccc2OC)nc(Nc2cc(C)ccc2C)n1` [Compound 85]: the “RRE + rRNA IC50 (μM)” value in the data set with HIV derived RRE RNA is “inactive”. Moreover, in the data set on 2.2.15 cells, the CC50 amounted to 209 µM.

In the case of `CCN(CC)c1nc(NN=Cc2ccc(F)cc2)nc(Nc2ccc([N+](=O)[O-])cc2)n1` [Compound 68], the “RRE + rRNA IC50 (μM)” value in the data set with HIV derived RRE RNA was “inactive”. Besides, the CC50 in the data set on 2.2.15 cells was greater than 300 µM.

For `CNc1nc(NN=Cc2ccccc2[N+](=O)[O-])nc(Nc2ccccc2)n1` [Compound 65], the “RRE + rRNA IC50 (μM)” value with HIV derived RRE RNA is “inactive”. For the same compound, in the data set on 2.2.15 cells, the CC50 stood at 17 µM.

On to `Brc1cc2c(cc1C=NNc1nc(NCc3ccccc3)nc(Nc3ccccc3)n1)OCO2` [Compound 43], for which the “RRE + rRNA IC50 (μM)” value in the data set on HIV derived RRE RNA is “inactive”. Also, in the data set on 2.2.15 cells, the CC50 was 87 µM.

Turning to `O=[N+]([O-])c1ccc(Nc2nc(N/N=C/c3cccc(Cl)c3)nc(N3CCCCC3)n2)cc1` [Compound 41], in the data set with HIV derived RRE RNA, the “RRE + rRNA IC50 (μM)” value was “inactive”. Further, in the data set with 2.2.15 cells, the CC50 is greater than 300 µM.

For `CC(C)c1ccc(C=NNc2nc(Nc3ccc([N+](=O)[O-])cc3)nc(N3CCCCCC3)n2)cc1` [Compound 56], in the data set with HIV derived RRE RNA, the “RRE + rRNA IC50 (μM)” value was “inactive”. For the same compound, the CC50 in the data set with 2.2.15 cells is 63 µM.

For the compound `COc1ccc(C=NNc2nc(Nc3ccc([N+](=O)[O-])cc3)nc(N3CCCCC3)n2)cc1` [Compound 44], the “RRE + rRNA IC50 (μM)” value with HIV derived RRE RNA is “inactive”. Moreover, the CC50 with 2.2.15 cells amounted to 285 µM.

`O=[N+]([O-])c1ccc(C=NNc2nc(Nc3ccccc3)nc(NC3CCCCC3)n2)cc1` [Compound 46]: the “RRE + rRNA IC50 (μM)” value with HIV derived RRE RNA is “inactive”. In addition, the 50% cytotoxic concentration (CC50) in the data set with 2.2.15 cells is greater than 100 µM.

As for `Cc1ccc(Nc2nc(NN=Cc3ccc(Cl)c(Cl)c3)nc(Nc3ccccc3)n2)c(C)c1` [Compound 40], the “RRE + rRNA IC50 (μM)” value with HIV derived RRE RNA was “inactive”. Besides, the CC50 in the data set on 2.2.15 cells was found to be 136 µM.

`Cc1ccc(Nc2nc(NN=Cc3ccc4c(c3)OCO4)nc(Nc3ccccc3)n2)c(C)c1` [Compound 51]: the “RRE + rRNA IC50 (μM)” value in the data set with HIV derived RRE RNA is “inactive”. Moreover, the CC50 with 2.2.15 cells was 130 µM.

Consider `Cc1ccc(Nc2nc(NN=Cc3ccc(Cl)cc3)nc(Nc3ccccc3)n2)c(C)c1` [Compound 42], for which the “RRE + rRNA IC50 (μM)” value with HIV derived RRE RNA was “inactive”. In the data set with 2.2.15 cells, the CC50 is 237 µM.

Turning to `Oc1ccc(Nc2nc(Nc3cccc(C(F)(F)F)c3)nc(N3CCOCC3)n2)cc1` [Compound 53], the “RRE + rRNA IC50 (μM)” value in the data set on HIV derived RRE RNA was “inactive”. The CC50 in the data set on 2.2.15 cells stood at 72 µM.

As to `Cc1ccc(Nc2nc(NN=Cc3cccc(Br)c3)nc(Nc3ccccc3)n2)c(C)c1` [Compound 49], in the data set on HIV derived RRE RNA, the “RRE + rRNA IC50 (μM)” value was “inactive”. Also, the CC50 in the data set on 2.2.15 cells is 140 µM.

`CCCCN(CCCC)c1nc(NN=Cc2c[nH]c3ccccc23)nc(Nc2ccc([N+](=O)[O-])cc2)n1` [Compound 39]: the “RRE + rRNA IC50 (μM)” value in the data set with HIV derived RRE RNA was “inactive”. The 50% cytotoxic concentration (CC50) in the data set on 2.2.15 cells turned out to be 5.3 µM.

For the compound `CC(C)(C)Nc1nc(NCc2ccccc2)nc(N/N=C/c2ccccc2F)n1` [Compound 93, 2-fluorobenzaldehyde N-[4-(benzylamino)-6-(tert-butylamino)-1,3,5-triazin-2-yl]hydrazone], the “RRE + rRNA IC50 (μM)” value with HIV derived RRE RNA is “Inactive”.

For the compound `FC(F)(F)c1cccc(Nc2nc(Nc3cccc(Br)c3)nc(N3CCOCC3)n2)c1` [Compound 38], the “RRE + rRNA IC50 (μM)” value in the data set with HIV derived RRE RNA is “inactive”. The CC50 in the data set with 2.2.15 cells is 125 µM.

For `COc1ccc(C=NNc2nc(Nc3ccccc3)nc(Nc3ccc(C)cc3C)n2)c(OC)c1` [Compound 61], the “RRE + rRNA IC50 (μM)” value with HIV derived RRE RNA was “inactive”. In the data set on 2.2.15 cells, the CC50 amounted to 1.3 µM.

Consider `C(=Cc1ccccc1)C=NNc1nc(NCc2ccccc2)nc(Nc2ccccc2)n1` [Compound 91], for which, in the data set on HIV derived RRE RNA, the IC50 is 800 µM. Besides, the CC50 with 2.2.15 cells is greater than 300 µM.

On to `Cc1[nH]c2ccccc2c1C=NNc1nc(Nc2ccccc2)nc(N2CCCCC2)n1` [Compound 88], for which the IC50 in the data set on HIV derived RRE RNA turned out to be 938 µM. Further, the CC50 with 2.2.15 cells is greater than 100 µM.

On to `Cc1[nH]c2ccccc2c1C=NNc1nc(NCc2ccccc2)nc(Nc2ccccc2)n1` [Compound 50], for which the “RRE + rRNA IC50 (μM)” value in the data set with HIV derived RRE RNA was “inactive”. Besides, the CC50 with 2.2.15 cells was found to be 30 µM.

Regarding `O=[N+]([O-])c1cc(C=NNc2nc(Nc3ccccc3)nc(N3CCOCC3)n2)ccc1Cl` [Compound 52], the “RRE + rRNA IC50 (μM)” value with HIV derived RRE RNA is “inactive”. Besides, the CC50 in the data set on 2.2.15 cells worked out at 11 µM.

With `COc1ccccc1C=NNc1nc(Nc2ccc([N+](=O)[O-])cc2)nc(Nc2ccc(C)c(C)c2)n1` [Compound 94], the IC50 in the data set on HIV derived RRE RNA came out at 250 µM. Further, in the data set with 2.2.15 cells, the CC50 is greater than 300 µM.

`C(=NNc1nc(Nc2ccccc2)nc(N2CCCCC2)n1)c1ccccc1` [Compound 3]: in the data set on HIV derived RRE RNA, the “RRE + rRNA IC50 (μM)” value is “inactive”. For the same compound, the CC50 in the data set on 2.2.15 cells was greater than 100 µM.

Source of the values: patent US6335339B1, “Triazine antiviral compounds” (Scriptgen Pharmaceuticals, Inc., priority 1998, dated 2002).
